According to ChEMBL document CHEMBL5291721, “A preclinical secondary pharmacology resource illuminates target-adverse drug reaction associations of marketed drugs” (Nat Commun, 2023):

Experiments:
[1] = biological target: Voltage-gated inwardly rectifying potassium channel KCNH2 (Homo sapiens, UniProt Q12809); assay type: functional; conditions: read-out: AC50
Progesterone receptor = biological target: T1, Progesterone receptor (Homo sapiens, UniProt P06401)
T1 sequence (P06401 whole entry): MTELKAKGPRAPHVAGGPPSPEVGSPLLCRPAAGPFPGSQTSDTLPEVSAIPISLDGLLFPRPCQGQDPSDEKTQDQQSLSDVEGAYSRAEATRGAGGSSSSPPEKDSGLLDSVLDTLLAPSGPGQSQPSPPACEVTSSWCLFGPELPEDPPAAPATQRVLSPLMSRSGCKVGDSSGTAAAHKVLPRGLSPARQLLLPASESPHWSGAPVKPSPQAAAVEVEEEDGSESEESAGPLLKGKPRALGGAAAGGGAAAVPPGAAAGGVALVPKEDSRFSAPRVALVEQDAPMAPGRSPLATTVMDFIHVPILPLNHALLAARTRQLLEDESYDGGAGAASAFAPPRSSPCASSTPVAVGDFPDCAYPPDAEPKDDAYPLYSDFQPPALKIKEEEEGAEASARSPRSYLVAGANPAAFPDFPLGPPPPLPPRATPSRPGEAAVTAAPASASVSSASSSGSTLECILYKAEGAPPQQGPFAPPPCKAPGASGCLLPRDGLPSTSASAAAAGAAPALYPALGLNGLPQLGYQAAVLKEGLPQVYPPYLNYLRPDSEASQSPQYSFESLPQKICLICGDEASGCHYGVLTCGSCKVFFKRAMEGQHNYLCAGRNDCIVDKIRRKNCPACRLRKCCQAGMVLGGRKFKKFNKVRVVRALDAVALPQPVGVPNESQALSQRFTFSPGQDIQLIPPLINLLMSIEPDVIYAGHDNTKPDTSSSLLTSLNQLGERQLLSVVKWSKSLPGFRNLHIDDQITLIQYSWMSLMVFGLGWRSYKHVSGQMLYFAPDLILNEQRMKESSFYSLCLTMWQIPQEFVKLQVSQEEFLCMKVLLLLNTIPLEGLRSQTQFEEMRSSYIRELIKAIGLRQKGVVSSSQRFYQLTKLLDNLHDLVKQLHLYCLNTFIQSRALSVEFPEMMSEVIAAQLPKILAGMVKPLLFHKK

Prothrombin = Prothrombin (Homo sapiens, UniProt P00734); assay type: functional
Thromboxane A2 receptor [2] = biological target: T2, Thromboxane A2 receptor (Homo sapiens, UniProt P21731); assay type: functional, cell-based
T2 sequence (P21731 whole entry): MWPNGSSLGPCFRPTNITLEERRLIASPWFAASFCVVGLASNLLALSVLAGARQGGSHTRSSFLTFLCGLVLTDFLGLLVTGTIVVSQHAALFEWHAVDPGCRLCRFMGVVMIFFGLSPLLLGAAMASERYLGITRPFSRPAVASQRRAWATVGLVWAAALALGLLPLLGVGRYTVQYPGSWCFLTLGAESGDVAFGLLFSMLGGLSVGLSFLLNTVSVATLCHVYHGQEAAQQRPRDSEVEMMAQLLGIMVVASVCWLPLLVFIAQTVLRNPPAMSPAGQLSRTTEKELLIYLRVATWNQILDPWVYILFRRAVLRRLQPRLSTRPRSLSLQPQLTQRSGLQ

Adenosine receptor A3 = biological target: T3, Adenosine receptor A3 (Homo sapiens, UniProt P0DMS8)
T3 sequence (P0DMS8 whole entry): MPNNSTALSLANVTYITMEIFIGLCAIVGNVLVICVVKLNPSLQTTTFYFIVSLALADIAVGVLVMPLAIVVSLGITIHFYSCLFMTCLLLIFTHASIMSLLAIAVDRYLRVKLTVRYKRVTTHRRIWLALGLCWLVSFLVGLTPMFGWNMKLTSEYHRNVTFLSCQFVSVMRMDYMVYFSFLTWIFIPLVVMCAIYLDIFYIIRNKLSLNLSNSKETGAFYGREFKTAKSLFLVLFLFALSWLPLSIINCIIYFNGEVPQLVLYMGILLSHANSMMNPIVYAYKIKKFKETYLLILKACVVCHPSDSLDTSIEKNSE

[3] = biological target: T4, Prostaglandin G/H synthase 1 (Homo sapiens, UniProt P23219); assay type: functional
T4 sequence (P23219 whole entry): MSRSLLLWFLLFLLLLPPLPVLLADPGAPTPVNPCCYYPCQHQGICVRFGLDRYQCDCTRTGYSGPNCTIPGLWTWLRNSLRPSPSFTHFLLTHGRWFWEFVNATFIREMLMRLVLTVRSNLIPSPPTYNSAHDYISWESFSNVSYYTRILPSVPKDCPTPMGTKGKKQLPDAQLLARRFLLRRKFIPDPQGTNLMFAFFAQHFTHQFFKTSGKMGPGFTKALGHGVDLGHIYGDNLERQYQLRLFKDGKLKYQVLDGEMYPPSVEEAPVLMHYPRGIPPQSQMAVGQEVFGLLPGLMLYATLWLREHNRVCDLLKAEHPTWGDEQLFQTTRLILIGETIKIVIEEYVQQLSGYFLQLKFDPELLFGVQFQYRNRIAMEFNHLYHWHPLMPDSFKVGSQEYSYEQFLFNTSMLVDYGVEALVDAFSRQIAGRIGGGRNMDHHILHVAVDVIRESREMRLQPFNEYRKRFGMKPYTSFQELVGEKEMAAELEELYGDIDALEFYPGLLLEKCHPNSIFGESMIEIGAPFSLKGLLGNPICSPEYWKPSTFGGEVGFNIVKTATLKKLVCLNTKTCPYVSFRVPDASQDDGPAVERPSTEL

D(3) dopamine receptor = D(3) dopamine receptor (Homo sapiens, UniProt P35462)
Sequence of D(3) dopamine receptor (P35462 whole entry): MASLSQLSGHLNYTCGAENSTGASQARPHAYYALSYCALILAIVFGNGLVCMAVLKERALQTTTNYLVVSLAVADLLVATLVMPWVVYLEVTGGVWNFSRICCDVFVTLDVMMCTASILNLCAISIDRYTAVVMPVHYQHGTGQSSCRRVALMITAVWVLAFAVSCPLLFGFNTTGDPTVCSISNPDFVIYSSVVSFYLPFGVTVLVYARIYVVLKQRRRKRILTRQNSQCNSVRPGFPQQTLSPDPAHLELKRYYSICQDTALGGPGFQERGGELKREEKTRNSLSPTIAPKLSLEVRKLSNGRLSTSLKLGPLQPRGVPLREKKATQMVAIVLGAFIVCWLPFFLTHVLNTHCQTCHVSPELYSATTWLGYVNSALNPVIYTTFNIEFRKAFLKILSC

Acetylcholinesterase = Acetylcholinesterase (Homo sapiens, UniProt P22303); assay type: functional
Histamine H3 receptor = Histamine H3 receptor (Homo sapiens, UniProt Q9Y5N1)
Sequence of Histamine H3 receptor (Q9Y5N1 whole entry): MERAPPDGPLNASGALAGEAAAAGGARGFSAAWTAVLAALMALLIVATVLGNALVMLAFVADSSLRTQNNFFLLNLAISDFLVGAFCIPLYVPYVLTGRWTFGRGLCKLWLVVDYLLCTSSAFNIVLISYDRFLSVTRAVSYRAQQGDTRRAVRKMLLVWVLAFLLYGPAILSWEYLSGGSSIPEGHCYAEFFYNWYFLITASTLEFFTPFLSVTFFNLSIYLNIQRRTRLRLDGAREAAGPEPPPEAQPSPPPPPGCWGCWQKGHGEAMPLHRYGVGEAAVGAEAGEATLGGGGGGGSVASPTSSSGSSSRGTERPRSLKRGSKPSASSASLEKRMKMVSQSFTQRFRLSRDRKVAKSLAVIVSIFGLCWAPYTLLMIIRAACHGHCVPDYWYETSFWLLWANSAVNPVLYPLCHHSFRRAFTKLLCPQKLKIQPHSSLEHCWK

Thromboxane A2 receptor [4] = biological target: T2, Thromboxane A2 receptor; assay type: functional, cell-based; remark: listed apart in the source
Mu-type opioid receptor = Mu-type opioid receptor (Homo sapiens, UniProt P35372)
Sequence of Mu-type opioid receptor (P35372 whole entry): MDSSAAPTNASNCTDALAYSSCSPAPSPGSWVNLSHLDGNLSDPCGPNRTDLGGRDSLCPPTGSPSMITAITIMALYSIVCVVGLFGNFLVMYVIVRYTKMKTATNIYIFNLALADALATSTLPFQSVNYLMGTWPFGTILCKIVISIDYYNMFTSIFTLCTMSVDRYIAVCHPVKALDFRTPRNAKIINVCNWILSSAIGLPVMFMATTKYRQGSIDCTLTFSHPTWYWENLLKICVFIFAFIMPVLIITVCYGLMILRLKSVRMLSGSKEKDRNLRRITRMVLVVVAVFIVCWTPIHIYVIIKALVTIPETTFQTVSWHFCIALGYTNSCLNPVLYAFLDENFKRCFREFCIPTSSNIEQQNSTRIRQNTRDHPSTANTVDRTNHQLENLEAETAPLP

[5] = biological target: Sodium-dependent dopamine transporter (Homo sapiens, UniProt Q01959)
Sequence of Sodium-dependent dopamine transporter (Q01959 whole entry): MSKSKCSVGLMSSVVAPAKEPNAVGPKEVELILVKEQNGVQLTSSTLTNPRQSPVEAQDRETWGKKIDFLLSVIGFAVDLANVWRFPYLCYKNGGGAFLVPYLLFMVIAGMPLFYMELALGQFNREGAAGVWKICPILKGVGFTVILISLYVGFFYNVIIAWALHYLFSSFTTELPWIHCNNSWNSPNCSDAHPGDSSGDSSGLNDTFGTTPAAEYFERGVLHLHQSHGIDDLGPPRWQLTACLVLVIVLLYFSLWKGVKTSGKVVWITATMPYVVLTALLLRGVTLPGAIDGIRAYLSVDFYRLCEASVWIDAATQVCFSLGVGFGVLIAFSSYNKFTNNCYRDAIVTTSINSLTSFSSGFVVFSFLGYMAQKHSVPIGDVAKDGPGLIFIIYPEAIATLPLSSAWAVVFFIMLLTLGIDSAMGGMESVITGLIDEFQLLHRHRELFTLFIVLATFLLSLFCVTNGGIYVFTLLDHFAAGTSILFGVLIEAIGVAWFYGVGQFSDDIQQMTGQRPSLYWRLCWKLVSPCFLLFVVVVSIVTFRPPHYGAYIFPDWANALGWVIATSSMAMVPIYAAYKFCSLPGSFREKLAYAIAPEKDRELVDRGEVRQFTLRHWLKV

[6] = biological target: 5-hydroxytryptamine receptor 2B (Homo sapiens, UniProt P41595); assay type: functional, cell-based
Sequence of 5-hydroxytryptamine receptor 2B (P41595 whole entry): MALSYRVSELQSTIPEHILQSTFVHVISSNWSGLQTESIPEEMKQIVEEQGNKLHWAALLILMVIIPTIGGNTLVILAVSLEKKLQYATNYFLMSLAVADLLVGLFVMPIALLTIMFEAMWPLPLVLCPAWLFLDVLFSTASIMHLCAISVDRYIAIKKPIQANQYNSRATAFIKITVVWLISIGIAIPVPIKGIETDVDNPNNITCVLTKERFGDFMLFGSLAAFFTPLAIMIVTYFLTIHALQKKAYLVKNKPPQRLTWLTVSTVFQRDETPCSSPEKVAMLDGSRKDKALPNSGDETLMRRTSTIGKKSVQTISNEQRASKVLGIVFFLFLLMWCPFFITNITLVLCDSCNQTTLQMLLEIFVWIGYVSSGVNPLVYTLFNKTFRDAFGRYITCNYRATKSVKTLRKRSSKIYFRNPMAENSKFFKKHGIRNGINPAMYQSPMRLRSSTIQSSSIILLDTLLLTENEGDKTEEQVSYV

D(1A) dopamine receptor = D(1A) dopamine receptor (Homo sapiens, UniProt P21728)
Sequence of D(1A) dopamine receptor (P21728 whole entry): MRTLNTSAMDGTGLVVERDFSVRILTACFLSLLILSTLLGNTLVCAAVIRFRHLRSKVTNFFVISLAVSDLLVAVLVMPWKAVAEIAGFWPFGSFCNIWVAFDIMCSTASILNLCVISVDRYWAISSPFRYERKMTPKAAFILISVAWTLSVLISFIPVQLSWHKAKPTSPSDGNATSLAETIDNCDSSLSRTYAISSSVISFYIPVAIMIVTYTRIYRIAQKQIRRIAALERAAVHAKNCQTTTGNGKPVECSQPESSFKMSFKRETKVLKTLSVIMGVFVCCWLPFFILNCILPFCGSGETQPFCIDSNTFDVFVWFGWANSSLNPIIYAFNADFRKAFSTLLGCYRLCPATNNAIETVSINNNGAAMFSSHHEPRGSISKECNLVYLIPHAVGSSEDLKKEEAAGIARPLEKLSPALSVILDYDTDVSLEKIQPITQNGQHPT

[7] = biological target: T5, Alpha-1A adrenergic receptor (Homo sapiens, UniProt P35348); assay type: functional, cell-based
T5 sequence (P35348 whole entry): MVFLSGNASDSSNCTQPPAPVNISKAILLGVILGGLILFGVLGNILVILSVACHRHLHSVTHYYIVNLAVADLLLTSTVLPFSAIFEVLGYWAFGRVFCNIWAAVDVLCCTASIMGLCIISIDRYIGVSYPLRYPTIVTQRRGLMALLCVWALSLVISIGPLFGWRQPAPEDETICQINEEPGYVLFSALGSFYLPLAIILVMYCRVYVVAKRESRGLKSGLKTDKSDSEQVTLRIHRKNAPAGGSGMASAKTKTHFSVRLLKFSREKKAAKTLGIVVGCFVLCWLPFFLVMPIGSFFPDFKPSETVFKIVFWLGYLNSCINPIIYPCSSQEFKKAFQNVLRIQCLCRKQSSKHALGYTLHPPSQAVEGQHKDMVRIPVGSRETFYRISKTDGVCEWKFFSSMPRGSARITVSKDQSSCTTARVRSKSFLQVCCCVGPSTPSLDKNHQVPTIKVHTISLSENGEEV

[8] = biological target: T4, Prostaglandin G/H synthase 1; assay type: functional; remark: listed apart in the source

Measured: AC50
Further: assay procedure not described here.

Sequence of Voltage-gated inwardly rectifying potassium channel KCNH2 (Q12809 whole entry): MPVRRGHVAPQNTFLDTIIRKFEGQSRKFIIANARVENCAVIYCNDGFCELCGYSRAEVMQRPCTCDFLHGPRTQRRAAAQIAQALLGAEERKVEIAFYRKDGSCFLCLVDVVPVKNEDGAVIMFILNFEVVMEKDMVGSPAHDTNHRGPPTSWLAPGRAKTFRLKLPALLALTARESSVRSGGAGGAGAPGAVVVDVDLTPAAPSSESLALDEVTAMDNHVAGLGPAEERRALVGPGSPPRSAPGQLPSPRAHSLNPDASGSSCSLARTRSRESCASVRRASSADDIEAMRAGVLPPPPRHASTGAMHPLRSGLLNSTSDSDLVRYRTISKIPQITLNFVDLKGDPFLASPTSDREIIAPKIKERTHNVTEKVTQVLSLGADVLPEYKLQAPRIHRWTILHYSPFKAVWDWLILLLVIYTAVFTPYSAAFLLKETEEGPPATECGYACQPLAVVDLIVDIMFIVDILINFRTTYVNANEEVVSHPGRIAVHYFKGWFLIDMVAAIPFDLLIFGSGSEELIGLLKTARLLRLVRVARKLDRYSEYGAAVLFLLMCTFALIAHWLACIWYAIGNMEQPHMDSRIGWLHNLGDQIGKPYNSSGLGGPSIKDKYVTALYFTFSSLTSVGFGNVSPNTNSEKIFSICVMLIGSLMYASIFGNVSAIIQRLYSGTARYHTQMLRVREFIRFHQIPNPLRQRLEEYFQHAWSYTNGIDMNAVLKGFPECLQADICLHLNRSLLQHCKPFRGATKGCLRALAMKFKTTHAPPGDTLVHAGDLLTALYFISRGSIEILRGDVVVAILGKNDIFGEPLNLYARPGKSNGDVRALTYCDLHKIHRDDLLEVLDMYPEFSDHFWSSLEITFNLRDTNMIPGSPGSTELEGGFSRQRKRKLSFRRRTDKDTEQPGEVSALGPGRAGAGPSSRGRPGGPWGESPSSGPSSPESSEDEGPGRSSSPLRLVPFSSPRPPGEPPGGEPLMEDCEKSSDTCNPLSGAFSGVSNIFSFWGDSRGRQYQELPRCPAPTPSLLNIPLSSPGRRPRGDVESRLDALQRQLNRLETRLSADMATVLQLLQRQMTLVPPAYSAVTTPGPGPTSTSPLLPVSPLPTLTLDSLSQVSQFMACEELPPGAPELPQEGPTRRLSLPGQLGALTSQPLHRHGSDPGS

C[N+](C)(C)CCOC(N)=O [CARBAMOYLCHOLINE]
> 30 µM: [1]

Nc1nc2c(ncn2CCC(CO)CO)c(=O)[nH]1 [PENCICLOVIR]
> 30 µM: all assays above

CN(C)CCCN1c2ccccc2Sc2ccccc21 [PROMAZINE]
8.1 µM: [1]

N[C@@H](CSCC(=O)O)C(=O)O [CARBOCYSTEINE]
> 30 µM: [1]

Cn1cc[nH]c1=S [METHIMAZOLE]
0.541 µM: [3]
not listed: [1]
> 30 µM: all other assays above

CN(CCCN1c2ccccc2CCc2ccccc21)CC(=O)c1ccc(Cl)cc1 [LOFEPRAMINE]
3.3 µM: [1]

NS(=O)(=O)c1cc(Cl)c(Cl)c(S(N)(=O)=O)c1 [DICHLORPHENAMIDE]
> 30 µM: [1]

CC(=O)N[C@H]1[C@H]([C@H](O)[C@H](O)CO)OC(C(=O)O)=C[C@@H]1N=C(N)N [ZANAMIVIR]
> 30 µM: [1]

C[N+](C)(C)CC(=O)O [BETAINE]
> 30 µM: [1]

CC(=O)N(CC(O)CO)c1c(I)c(C(=O)NCC(O)CO)c(I)c(C(=O)NCC(O)CO)c1I (centres undefined) [IOHEXOL]
> 30 µM: [1]

CN(C/C=C/c1ccccc1)Cc1cccc2ccccc12 [NAFTIFINE]
2.02 µM: [1]

CN1CCN(C(c2ccccc2)c2ccccc2)CC1 [CYCLIZINE]
1.98 µM: [5]
9.64 µM: Adenosine receptor A3
24.9 µM: Mu-type opioid receptor
20 µM: [1]
14.4 µM: D(1A) dopamine receptor
2.21 µM: D(3) dopamine receptor
> 30 µM: all other assays above

NS(=O)(=O)c1cc(-c2nnn[nH]2)c(NCc2cccs2)cc1Cl [AZOSEMIDE]
> 30 µM: [1]

C=C1C[C@@H]2[C@H](CC[C@]3(C)C(=O)CC[C@@H]23)[C@@]2(C)C=CC(=O)C=C12 [EXEMESTANE]
> 30 µM: [1]

CCCC(=O)N1CCCN(c2nc(N)c3cc(OC)c(OC)cc3n2)CC1 [BUNAZOSIN]
4.5 µM: [1]

CC(C)NCC1CCc2cc(CO)c([N+](=O)[O-])cc2N1 (centres undefined) [OXAMNIQUINE]
> 30 µM: [1]

CC(=O)O[C@]1(C(C)=O)CC[C@H]2[C@@H]3C[C@H](C)C4=CC(=O)CC[C@]4(C)[C@H]3CC[C@@]21C [MEDROXYPROGESTERONE ACETATE]
> 10 µM: [3]
not listed: Progesterone receptor | Adenosine receptor A3
> 30 µM: all other assays above

CC(C)(N)Cc1ccc(Cl)cc1 [CHLORPHENTERMINE]
> 30 µM: [1]

Oc1c(I)cc(I)c2cccnc12 [IODOQUINOL]
> 3 µM: Adenosine receptor A3
8.91 µM: Mu-type opioid receptor
> 30 µM: all other assays above

CO[C@@]12[C@H](COC(N)=O)C3=C(C(=O)C(C)=C(N)C3=O)N1C[C@@H]1N[C@@H]12 [MITOMYCIN]
not listed: [1]
> 30 µM: all other assays above

Cc1c(O)cccc1C(=O)N[C@@H](CSc1ccccc1)[C@H](O)CN1C[C@H]2CCCC[C@H]2C[C@H]1C(=O)NC(C)(C)C
13.2 µM: Thromboxane A2 receptor [2]
23.1 µM: [5]
15.3 µM: Mu-type opioid receptor
2.84 µM: Adenosine receptor A3
not listed: D(1A) dopamine receptor
> 30 µM: all other assays above

O=P(O)(O)C(O)(Cc1cccnc1)P(=O)(O)O [RISEDRONIC ACID]
> 30 µM: [1]

Oc1cccc2cccnc12 [OXYQUINOLINE]
20.8 µM: [7]
not listed: [1]
> 30 µM: all other assays above

CC(C(O)c1ccc(O)cc1)N1CCC(Cc2ccccc2)CC1 (centres undefined) [IFENPRODIL]
0.67 µM: [1]

CN(C)[C@@H]1C(O)=C(C(N)=O)C(=O)[C@@]2(O)C(O)=C3C(=O)c4c(O)ccc(Cl)c4[C@@H](O)[C@H]3C[C@@H]12 [DEMECLOCYCLINE]
> 30 µM: [1]
